We go through one compound from patent US5922554A, “Inhibition of cellular uptake of cholesterol” (The Regents of the University of California, priority 1996, dated 1999).

Assay [1] has as its system fibroblast monolayers. Nature of the assay: Cellular cholesterol mass determined enzymatically. The format is cell-based, human. Conditions: 2 mM NEM, 120 min, 37° C.; control 4.1 ± 0.3. The protocol:
In most experiments, LDL was labeled directly with ^3 H-FC by exchange from albumin-agarose covalent complex essentially as previously described (Miida et al., Biochemistry, 29: 10469-10474 (1990)). Briefly, recrystallized human serum albumin (Sigma Chemical Co, St. Louis, Mo., USA) was covalently linked to CNBr-activated Sepharose 6B (Pharmacia). 1,2-^3 H-FC in ethanol (0.1-1.0 mCi, 10-20 μl/ml gel suspension) was added and the mixture incubated with gentle stirring for 60 mm at 37° C. The labeled suspension was centrifuged (500× g, 1 min) and the gel equilibrated (60 min, 37° C.) with unlabeled LDL prepared as described above. Finally the gel was removed by centrifugation, leaving labeled LDL in the supernatant. LDL total and FC mass was determined fluorimetrically with cholesterol oxidase (Heider & Boyett, J. Lipid Res. 19: 514-518 (1978)) in the presence or absence of cholesterol esterase. EC mass was obtained by difference. LDL ^3 H-radioactivity was measured by liquid scintillation spectrometry. FC specific activity in these experiments was 3×10^4 to 5×10^5 cpm μg^-1.
The FC and EC mass of cell monolayers was determined before and after incubation with lipoprotein as described above. Portions of the chloroform phase were analyzed for total and free cholesterol. […]
^a Increase in cellular cholesterol mass determined enzymatically ove

The subject of assay [2] is vesicular transport. Conditions: Tageya et al.; cited from earlier work.

For `CCN1C(=O)C=CC1=O` [N-ethylmaleimide], the Δ total cholesterol in assay [1] came out at 0.4 ± 0.2 μg dish^-1. The “concentration for maximal inhibition in assays of vesicular transport in vitro” value in assay [2] is given as 1 mM.
